Source: ChEMBL document CHEMBL4680360, “Novel Oxazine Monoacylglycerol Lipase (MAGL) Inhibitors” (ACS Med Chem Lett, 2021)

Target: T1, Monoglyceride lipase (Homo sapiens, UniProt Q99685)
T1 sequence (Q99685 whole entry): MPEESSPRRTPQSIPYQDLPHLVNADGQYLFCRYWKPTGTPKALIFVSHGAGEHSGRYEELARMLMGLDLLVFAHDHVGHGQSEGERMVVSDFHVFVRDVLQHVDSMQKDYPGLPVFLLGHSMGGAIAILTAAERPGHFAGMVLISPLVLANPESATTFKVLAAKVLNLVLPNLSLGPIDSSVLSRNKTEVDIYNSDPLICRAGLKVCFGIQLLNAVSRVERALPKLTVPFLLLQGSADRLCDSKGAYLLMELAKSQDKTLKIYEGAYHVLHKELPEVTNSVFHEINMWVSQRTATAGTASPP
Experiment: Inhibition of MAGL (unknown origin) using 2-AG as substrate incubated for 15 mins followed by substrate addition and measured after 30 mins by mass spectrophotometry

`Cc1ccc([C@@H](c2ccccc2)C2CCN(C(=O)N3CC[C@@H]4OCC(=O)N[C@@H]4C3)CC2)cc1` was tested, and the IC50 was 0.1 nM.
